Patent US11807644B2 (PMV Pharmaceuticals, Inc., priority 2020, dated 2023)

Target: T1, recombinant His-tag Y220C p53 DBD protein (Homo sapiens, UniProt P04637, Y220C)
T1 construct: recombinant His-tag Y220C p53 DBD protein (amino acids #˜94-312)
Experiment: In vitro DNA binding activity assay (TR-FRET): binding of His-tag Y220C p53 DBD to biotin-labeled consensus DNA
Assay type: biochemical
Conditions: SC150 = concentration to increase DNA binding by […], His-tag Y220C p53 DBD, biotin-labeled consensus DNA

Row | SMILES | Y220C SC150 (μM)
1 | CC(C)(C)n1ccc(C(=O)NCc2nc(-c3cc4c(N[C@H]5CC[C@@H](F)CC5)cccc4n3CC(F)(F)F)no2)c1 [Compound 343B, 1-tert-butyl-N-{[3-(4-{[(1s,4s)-4-fluorocyclohexyl]amino}-1-(2,2,2-trifluoroethyl)-1H-indol-2-yl)-1,2,4-oxadiazol-5-yl]methyl}-1H-pyrrole-3-carboxamide] | * (* = 0 μM ≤ SC150 < 0.1 μM)
2 | CC(C)(C)n1cc(C(=O)NCc2nc(-c3cc4c(N[C@H]5CCCNC5)cccc4n3CC(F)(F)F)no2)cn1 [Compound 353B] | * (* = 0 μM ≤ SC150 < 0.1 μM)
3 | CC(C)(C)n1ccc(C(=O)NCc2nc(-c3cc4c(N[C@H]5CC[C@H](F)CC5)cccc4n3CC(F)(F)F)no2)c1 [Compound 354B, 1-tert-butyl-N-{[3-(4-{[(1r,4r)-4-fluorocyclohexyl]amino}-1-(2,2,2-trifluoroethyl)-1H-indol-2-yl)-1,2,4-oxadiazol-5-yl]methyl}-1H-pyrrole-3-carboxamide] | * (* = 0 μM ≤ SC150 < 0.1 μM)
4 | CC(C)(C)n1ccc(C(=O)NCc2nc(-c3cc4c(N[C@H]5CCC(=O)NC5)cccc4n3CC(F)(F)F)no2)c1 [Compound 356B, 1-tert-butyl-N-{[3-(4-{[(3S)-6-oxopiperidin-3-yl]amino}-1-(2,2,2-trifluoroethyl)-1H-indol-2-yl)-1,2,4-oxadiazol-5-yl]methyl}-1H-pyrrole-3-carboxamide] | * (* = 0 μM ≤ SC150 < 0.1 μM)
5 | CCN1CC[C@@H](Nc2cccc3c2cc(-c2noc(CNC(=O)c4ccn(CC(=O)N(C)C)c4)n2)n3CC(F)(F)F)[C@@H](F)C1 [Compound 365B, 1-[(dimethylcarbamoyl)methyl]-N-{[3-(4-{[(3S,4R)-1-ethyl-3-fluoropiperidin-4-yl]amino}-1-(2,2,2-trifluoroethyl)-1H-indol-2-yl)-1,2,4-oxadiazol-5-yl]methyl}-1H-pyrrole-3-carboxamide] | * (* = 0 μM ≤ SC150 < 0.1 μM)
6 | CC(C)(C)n1ccc(C(=O)NCc2nc(-c3cc4c(NC5CCn6ccnc6C5)cccc4n3CC(F)(F)F)no2)c1 (centres unmarked) [Compound 366B, 1-tert-butyl-N-({3-[4-({5H,6H, 7H,8H-imidazo[1,2-a]pyridin-7-yl}amino)-1-(2,2,2-trifluoroethyl)-1H-indol-2-yl]-1,2,4-oxadiazol-5-yl}methyl)-1H-pyrrole-3-carboxamide] | * (* = 0 μM ≤ SC150 < 0.1 μM)
7 | CC(C)(C)n1ccc(C(=O)NCc2nc(-c3cc4c(N[C@@H]5CCC(=O)NC5)cccc4n3CC(F)(F)F)no2)c1 [Compound 367B, 1-tert-butyl-N-{[3-(4-{[(3R)-6-oxopiperidin-3-yl]amino}-1-(2,2,2-trifluoroethyl)-1H-indol-2-yl)-1,2,4-oxadiazol-5-yl]methyl}-1H-pyrrole-3-carboxamide] | * (* = 0 μM ≤ SC150 < 0.1 μM)
8 | Cc1nc2c(s1)CC(Nc1cccc3c1cc(-c1noc(CNC(=O)c4ccn(C(C)(C)C)c4)n1)n3CC(F)(F)F)CC2 (centres unmarked) [Compound 368B, 1-tert-butyl-N-[(3-{4-[(2-methyl-4,5,6,7-tetrahydro-1,3-benzothiazol-6-yl)amino]-1-(2,2,2-trifluoroethyl)-1H-indol-2-yl}-1,2,4-oxadiazol-5-yl)methyl]-1H-pyrrole-3-carboxamide] | *** (*** = 0.5 μM ≤ SC150 < 1 μM)
9 | COc1ccc(NCc2nc(-c3cc4c(N[C@@H]5CCN(C)C[C@@H]5F)cccc4n3CC(F)(F)F)no2)nc1 [Compound 378B, N-[(3S,4R)-3-fluoro-1-methylpiperidin-4-yl]-2-(5-{[(5-methoxypyridin-2-yl)amino]methyl}-1,2,4-oxadiazol-3-yl)-1-(2,2,2-trifluoroethyl)-1H-indol-4-amine] | * (* = 0 μM ≤ SC150 < 0.1 μM)
10 | COc1ccc(NCc2nc(-c3cc4c(N[C@@H]5CCN(C)C[C@@H]5F)cccc4n3CC(F)(F)F)no2)cc1 [Compound 380B, N-[(3S,4R)-3-fluoro-1-methylpiperidin-4-yl]-2-(5-{[(4-methoxyphenyl)amino]methyl}-1,2,4-oxadiazol-3-yl)-1-(2,2,2-trifluoroethyl)-1H-indol-4-amine] | * (* = 0 μM ≤ SC150 < 0.1 μM)

Results, then the compound that gave them:

Row | Y220C SC150 (μM) | SMILES
11 | * (* = 0 μM ≤ SC150 < 0.1 μM) | CN1CC[C@@H](Nc2cccc3c2cc(-c2noc(CNC(=O)c4cn(C(C)(C)CF)cn4)n2)n3CC(F)(F)F)[C@@H](F)C1 [Compound 342B, N-{[3-(4-{[(3S,4R)-3-fluoro-1-methylpiperidin-4-yl]amino}-1-(2,2,2-trifluoroethyl)-1H-indol-2-yl)-1,2,4-oxadiazol-5-yl]methyl}-1-(1-fluoro-2-methylpropan-2-yl)-1H-imidazole-4-carboxamide]
12 | * (* = 0 μM ≤ SC150 < 0.1 μM) | CN1CC[C@@H](Nc2cccc3c2cc(-c2noc(CNC(=O)c4cnn(C5CCC(F)(F)C5)c4)n2)n3CC(F)(F)F)[C@@H](F)C1 (stereo partly drawn) [Compound 344B, 1-(3,3-difluorocyclopentyl)-N-{[3-(4-{1[(3S,4R)-3-fluoro-1-methylpiperidin-4-yl]amino}-1-(2,2,2-trifluoroethyl)-1H-indol-2-yl)-1,2,4-oxadiazol-5-yl]methyl}-1H-pyrazole-4-carboxamide]
13 | * (* = 0 μM ≤ SC150 < 0.1 μM) | CN1CC[C@@H](Nc2cccc3c2cc(-c2noc(CNC(=O)c4ccn(C5CCC(F)C5)c4)n2)n3CC(F)(F)F)[C@@H](F)C1 (stereo partly drawn) [Compound 345B, N-{[3-(4-{[(3S,4R)-3-fluoro-1-methylpiperidin-4-yl]amino}-1-(2,2,2-trifluoroethyl)-1H-indol-2-yl)-1,2,4-oxadiazol-5-yl]methyl}-1-(3-fluorocyclopentyl)-1H-pyrrole-3-carboxamide]
14 | * (* = 0 μM ≤ SC150 < 0.1 μM) | CCN1CC[C@@H](Nc2cccc3c2cc(-c2noc(CNC(=O)c4ccn(C5CCC(F)(F)C5)c4)n2)n3CC(F)(F)F)[C@@H](F)C1 (stereo partly drawn) [Compound 346B, 1-(3,3-difluorocyclopentyl)-N-{[3-(4-{[(3S,4R)-1-ethyl-3-fluoropiperidin-4-yl]amino}-1-(2,2,2-trifluoroethyl)-1H-indol-2-yl)-1,2,4-oxadiazol-5-yl]methyl}-1H-pyrrole-3-carboxamide]
15 | * (* = 0 μM ≤ SC150 < 0.1 μM) | CN1CC[C@@H](Nc2cccc3c2cc(-c2noc(CNC(=O)c4ccn(C5CCC(F)(F)C5)c4)n2)n3CC(F)(F)F)[C@@H](F)C1 (stereo partly drawn) [Compound 347B, 1-(3,3-difluorocyclopentyl)-N-{[3-(4-{[(3S,4R)-3-fluoro-1-methylpiperidin-4-yl]amino}-1-(2,2,2-trifluoroethyl)-1H-indol-2-yl)-1,2,4-oxadiazol-5-yl]methyl)-1H-pyrrole-3-carboxamide]
16 | * (* = 0 μM ≤ SC150 < 0.1 μM) | CN1CCC(n2cc(C(=O)NCc3nc(-c4cc5c(N[C@@H]6CCN(C)C[C@@H]6F)cccc5n4CC(F)(F)F)no3)cn2)C1 (stereo partly drawn) [Compound 349B, N-{[3-(4-{1[(3S,4R)-3-fluoro-1-methylpiperidin-4-yl]amino}-1-(2,2,2-trifluoroethyl)-1H-indol-2-yl)-1,2,4-oxadiazol-5-yl]methyl}-1-(1-methylpyrrolidin-3-yl)-1H-pyrazole-4-carboxamide]
17 | * (* = 0 μM ≤ SC150 < 0.1 μM) | CN1CCC(n2cc(C(=O)NCc3nc(-c4cc5c(N[C@@H]6CCN(C)C[C@@H]6F)cccc5n4CC(F)(F)F)no3)cn2)CC1 [Compound 350B, N-{[3-(4-{1[(3S,4R)-3-fluoro-1-methylpiperidin-4-yl]amino}-1-(2,2,2-trifluoroethyl)-1H-indol-2-yl)-1,2,4-oxadiazol-5-yl]methyl}-1-(1-methylpiperidin-4-yl)-1H-pyrazole-4-carboxamide]
18 | * (* = 0 μM ≤ SC150 < 0.1 μM) | CN1CCC(n2ccc(C(=O)NCc3nc(-c4cc5c(N[C@@H]6CCN(C)C[C@@H]6F)cccc5n4CC(F)(F)F)no3)c2)C1 (some centres unmarked) [Compound 351B]
19 | * (* = 0 μM ≤ SC150 < 0.1 μM) | CN1CCC(n2ccc(C(=O)NCc3nc(-c4cc5c(N[C@@H]6CCN(C)C[C@@H]6F)cccc5n4CC(F)(F)F)no3)c2)CC1 [Compound 363B, N-{[3-(4-{[(3S,4R)-3-fluoro-1-methylpiperidin-4-yl]amino)-1-(2,2,2-trifluoroethyl)-1H-indol-2-yl)-1,2,4-oxadiazol-5-yl]methyl)-1-(1-methylpiperidin-4-yl)-1H-pyrrole-3-carboxamide]
20 | * (* = 0 μM ≤ SC150 < 0.1 μM) | CN1CC[C@@H](Nc2cccc3c2cc(-c2noc(CNC(=O)c4cnn(C5CCC5)c4)n2)n3CC(F)(F)F)[C@@H](F)C1 [Compound 369B, 1-cyclobutyl-N-{[3-(4-{1[(3S,4R)-3-fluoro-1-methylpiperidin-4-yl]amino}-1-(2,2,2-trifluoroethyl)-1H-indol-2-yl)-1,2,4-oxadiazol-5-yl]methyl}-1H-pyrazole-4-carboxamide]
21 | * (* = 0 μM ≤ SC150 < 0.1 μM) | CN1CC[C@@H](Nc2cccc3c2cc(-c2noc(CNC(=O)c4ccn(C5(C)CCOCC5)c4)n2)n3CC(F)(F)F)[C@@H](F)C1 [Compound 371B, N-{[3-(4-{[(3S,4R)-3-fluoro-1-methylpiperidin-4-yl]amino}-1-(2,2,2-trifluoroethyl)-1H-indol-2-yl)-1,2,4-oxadiazol-5-yl]methyl}-1-(4-methyloxan-4-yl)-1H-pyrrole-3-carboxamide]
22 | * (* = 0 μM ≤ SC150 < 0.1 μM) | CN1CC[C@@H](Nc2cccc3c2cc(-c2noc(CNC(=O)c4cnn(C5COC5)c4)n2)n3CC(F)(F)F)[C@@H](F)C1 [Compound 372B, N-{[3-(4-{[(3S,4R)-3-fluoro-1-methylpiperidin-4-yl]amino}-1-(2,2,2-trifluoroethyl)-1H-indol-2-yl)-1,2,4-oxadiazol-5-yl]methyl}-1-(oxetan-3-yl)-1H-pyrazole-4-carboxamide]
23 | * (* = 0 μM ≤ SC150 < 0.1 μM) | CN1CC[C@@H](Nc2cccc3c2cc(-c2noc(CNC(=O)c4ccn(C5COC5)c4)n2)n3CC(F)(F)F)[C@@H](F)C1 [Compound 379B, N-{[3-(4-{[(3S,4R)-3-fluoro-1-methylpiperidin-4-yl]amino}-1-(2,2,2-trifluoroethyl)-1H-indol-2-yl)-1,2,4-oxadiazol-5-yl]methyl}-1-(oxetan-3-yl)-1H-pyrrole-3-carboxamide]
